Patent US20260199325A1, “NOVEL SUBSTITUTED PYRAZINE-CARBOXAMIDE-IMIDAZOPYRIDINE DERIVATIVES” (Boehringer Ingelheim International GmbH, priority 2022, published 2026)

Biological target: T1, human metabotropic Glutamate 4 receptor (Homo sapiens, UniProt Q14833)
T1 construct: expressed in transfected cells; host or cells: HEK293
Test: In vitro testing of mGluR4 potency (Assay A), cAMP HTRF in HEK293 cells
Type: cell-based
Conditions: Table 2; HEK293 cell overexpressing human mGluR4; 10 uM L-Glutamic acid, 1 uM forskolin
Experimental: A. In Vitro Testing of mGluR4 Potency
The in vitro activity of the compounds according to the invention may be investigated as follows:
The HEK293 cell overexpressing the human metabotropic Glutamate 4 receptor were thawed at 37° C. and immediately diluted with cell culture medium. After centrifugation, the cell pellet is re-suspended in medium and then distributed from a stirred spinner flask into the wells of the assay plate. The plates are incubated for one hour at room temperature before they are incubated for 24 hours at 37° C./5% C02. After washing the cells in the plate three times with 80 uL HBSS/HEPES buffer (10 uL buffer remained in the wells after washing), 5 uL per well of compounds diluted in HBSS/HEPES buffer containing 0.2% BSA (final concentration: 0.1%) and 1 mM IBMX (final concentration: 0.5 mM) are added to the wells of the assay plate. Thereafter 5 uL per well of L-Glutamic acid (final concentration: 10 uM), forskolin (final concentration: 1 uM) and 1 mM IBMX (final concentration: 0.5 mM) dissolved in HBSS/HEPES buffer containing 0.2% BSA (final concentration: 0.1%) are added to the assay plate (final DMSO concentration: 1%). Several wells of the assay plate are used either for the positive and the negative controls or for the cAMP standard curve. The assay plate is incubated for 30 minutes at room temperature. Then 5 ul per well of Anti-cAMP-Antibody-d2 solution and 5 ul per well of cAMP-Europium Cryptate dilution are added to all wells of the plate and the plate is incubated another 60 minutes light protected at room temperature. The emission at 615 nm and 665 nm (Excitation wavelength: 320 nm) are measured on the EnVision™ reader (PerkinElmer). The ratio between the emission at 665 nm and 615 is calculated by the reader. The whole assay is performed in the dark or under green light.
The cAMP standard is prepared by diluting the cAMP stock solution with HBSS/Hepes buffer: 5 μl/well of the cAMP dilutions (in HBSS/Hepes buffer containing 1 mM IBMX and 0.2% BSA-final concentration: 0.5 mM IBMX and 0.1% BSA) are added to 10 ul/well HBSS/Hepes buffer plus 5 ul/well 4% DMSO in HBSS/Hepes containing 0.2% BSA (final DMSO concentration: 1%-like in the wells containing compounds) in the wells of the assay plate. The final cAMP concentrations in the assay plate were: 0, 0.17, 0.69, 2.78, 11.1, 44.5, 178, and 712 nM (two wells/cAMP concentration).
Each assay microtiter plate contained also wells with vehicle controls instead of compound as controls for L-Glutamic acid induced signal (negative control; 100% CTL; 10 uM L-Glutamic acid+1 uM forskolin+0.5 mM IBMX+1% DMSO) and wells with vehicle controls without L-Glutamic acid as controls for non-specific changes in signal (positive control; 0% CTL; 0 uM L-Glutamic acid+1 uM forskolin+0.5 mM IBMX+1% DMSO).
The analysis of the data is performed by the calculation the ratio between the emission at 665 nm and the emission at 615 nm (Em665/Em615 ratio). Thereafter the signals of the compounds are normalized using the positive and negative controls by the following formula:
PoC=100×((Signal Sample−Positive Control)/(Negative Control−Positive Control))

T1 sequence (Q14833 33-912): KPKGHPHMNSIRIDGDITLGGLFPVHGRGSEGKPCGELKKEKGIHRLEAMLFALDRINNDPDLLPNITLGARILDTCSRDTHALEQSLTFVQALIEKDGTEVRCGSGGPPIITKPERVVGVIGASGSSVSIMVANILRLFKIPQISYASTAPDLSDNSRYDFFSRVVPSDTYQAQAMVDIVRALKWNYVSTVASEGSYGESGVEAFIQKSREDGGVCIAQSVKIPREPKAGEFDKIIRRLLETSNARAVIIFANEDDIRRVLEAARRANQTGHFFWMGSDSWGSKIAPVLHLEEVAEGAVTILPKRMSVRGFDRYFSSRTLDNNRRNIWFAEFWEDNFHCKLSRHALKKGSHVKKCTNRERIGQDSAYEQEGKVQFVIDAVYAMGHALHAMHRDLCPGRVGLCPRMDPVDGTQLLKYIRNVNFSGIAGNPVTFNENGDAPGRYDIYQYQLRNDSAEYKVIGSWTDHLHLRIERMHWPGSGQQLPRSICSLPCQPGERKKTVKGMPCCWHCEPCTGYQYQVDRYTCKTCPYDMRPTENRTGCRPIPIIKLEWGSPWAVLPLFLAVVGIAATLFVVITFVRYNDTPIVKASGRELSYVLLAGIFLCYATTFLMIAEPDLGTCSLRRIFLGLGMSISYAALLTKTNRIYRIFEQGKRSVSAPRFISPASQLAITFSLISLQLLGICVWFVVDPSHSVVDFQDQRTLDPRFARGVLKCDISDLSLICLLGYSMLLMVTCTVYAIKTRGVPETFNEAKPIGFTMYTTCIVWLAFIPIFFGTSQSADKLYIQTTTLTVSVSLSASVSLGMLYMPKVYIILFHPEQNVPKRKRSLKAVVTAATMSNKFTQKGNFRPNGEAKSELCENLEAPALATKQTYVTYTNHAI

IC50 [µM]	Compound
0.041	CCn1c([C@@H](NC(=O)c2cnc(C)cn2)C2CC2)nc2cc(C(F)(F)F)ncc21 [Example 47, N-[(S)-cyclopropyl[3-ethyl-6-(trifluoromethyl)-3H-imidazo[4,5-c]pyridin-2-yl]methyl]-5-methylpyrazine-2-carboxamide]
0.004	CO[C@H](C)[C@H](NC(=O)c1cnc(C)cn1)c1nc2cc(Cl)cnc2n1C(C)C [Example 13, N-[(1R,2R)-1-[6-chloro-3-(propan-2-yl)-3H-imidazo[4,5-b]pyridin-2-yl]-2-methoxypropyl]-5-methylpyrazine-2-carboxamide]
